The values below come from patent US20100197760A1, “DISUBSTITUTED PHENYLPYRROLIDINES AS MODULATORS OF CORTICAL CATECHOLAMINERGIC NEUROTRANSMISSION” (NSAB, FILIAL AF NEUROSEARCH SWEDEN AB, SVERIGE, priority 2007, published 2010).

The test system of data set [1] is DOPAC levels (3,4-dihydroxyphenylacetic acid) in the rat striatum. Briefly: In vivo neurochemistry: tissue content of DOPAC in rat striatum. Details: species or system rat (male Sprague-Dawley). The settings on record: 100 μmol/kg s.c., 60 min after administration, %-increase from control value. On the procedure:
The measurement of the tissue content of DOPAC is well established in the field of research since the 1960's. In short, male Sprague-Dawely rats are administered the test compound 60 minutes prior to decapitation. The brain is rapidly taken out and dissected. The striatum is rapidly frozen and subsequently quantitatively analysed with respect to its content of DOPAC by means of HPLC and electrochemical detection. The number of animals used for each test compound/vehicle is 4/group.
Male Sprague-Dawley rats weighing 220-320 g are used throughout the experiments. Sixty (60) minutes following administration of the test substance, the rats are decapitated. Directly after decapitation the brain is removed from the skull and put on a glass petri bowl filled with ice. The limbic system (containing the nucleus accumbens—both the core and shell, most parts of the olfactory tubercle and ventral pallidum) is dissected using two thin, angled tweezers and put directly on foil on dry ice (carbon dioxide −78° C.). The striatum and cortex are then dissected and also put on dry ice. The time from decapitation until the last tissue is dissected varies from four to six minutes. The tissue is weighed using a Sartorius BP3105 connected to a computer and packed in labelled tin foil, then stored in an −80° C. freezer. Great care is taken in order to keep the tissue frozen until the time of neurochemical analysis. Each brain part is subsequently analyzed with respect to its content of monoamines and their metabolites.
The monoamine transmitter substances (NE (norepinephrine), DA (dopamine), 5-HT (serotonin)) as well as their amine (NM (normethanephrine), 3-MT (3-methoxytyramine)) and acid (DOPAC (3,4-dihydroxyphenylacetic acid), 5-HIAA (5-hydroxyindoleacetic acid), HVA (homovanillic acid)) metabolites are quantified in brain tissue homogenates by HPLC separations and electrochemical detection.
The analytical method is based on two chromatographic separations dedicated for amines or acids. Two chromatographic systems share a common auto injector with a 10-port valve and two sample loops for simultaneous injection on the two systems. Both systems are equipped with a reverse phase column (Luna C18(2), dp 3 μm, 50*2 mm i.d., Phenomenex) and electrochemical detection is accomplished at two potentials on glassy carbon electrodes (MF-1000, Bioanalytical Systems, Inc.). The column effluent is passed via a T-connection to the detection cell or to a waste outlet. This is accomplished by two solenoid valves, which block either the waste or detector outlet. By preventing the chromatographic front from reaching the detector, better detection conditions are achieved. The aqueous mobile phase (0.4 ml/min) for the acid system contains citric acid 14 mM, sodium citrate 10 mM, MeOH 15% (v/v) and EDTA 0.1 mM. Detection potentials relative to Ag/AgCl reference are 0.45 and 0.60V. The aqueous ion pairing mobile phase (0.5 ml/min) for the amine system contains citric acid 5 mM, sodium citrate 10 mM, MeOH 9% (v/v), MeCN 10.5% (v/v), decane sulfonic acid 0.45 mM, and EDTA 0.1 mM. Detection potentials relative to Ag/AgCl reference are 0.45 and 0.65V.

In data set [2] the test system is extracellular levels of dopamine, norepinephrine and serotonin in striatum and prefrontal cortex. Put plainly: In vivo microdialysis in awake, freely moving rats. Details: species or system rat (male Sprague-Dawley). The note with it: mirtazapine 10 mg/kg s.c. (FIGS. 21 and 22).
The test system of data set [3] is DOPAC levels (3,4-dihydroxyphenylacetic acid) in the rat striatum. The note with it: 100 μmol/kg s.c., data taken from Table 2 in Ref 1 (J. Med. Chem. 1994, 37, 2735); cited from earlier work.
Data set [4] concerns extracellular levels of dopamine, norepinephrine and serotonin in striatum and prefrontal cortex. The settings on record: literature statement (Pliszka, 2005); cited from earlier work.

Counter-ions that a name gives are not always drawn. Like-named read-outs stand apart in the source and are kept apart here.

For `CN1CCC(c2ccc(F)c(F)c2)C1` (stereo not drawn) [Example 4, 3-(3,4-DIFLUOROPHENYL)-1-METHYLPYRROLIDINE], the DOPAC %-increase in data set [1] was −20%.
Broadly, the melting point is the temperature, or range, at which the solid turns liquid. As to `Fc1ccc(C2CCNC2)c(F)c1` (stereo not drawn) (as salt: oxalic acid salt) [Example 2, 3-(2,4-DIFLUOROPHENYL)PYRROLIDINE], the melting point is 116 °C.
For `CN1CCN2c3ncccc3Cc3ccccc3C2C1` (stereo not drawn) [mirtazapine], in data set [2], the “extracellular norepinephrine and dopamine, cortex versus striatum” value is “increase predominantly extracellular norepinephrine and dopamine in the cortex”.
As for `Clc1ccc(C2CCNC2)cc1Cl` (stereo not drawn) (as salt: hydrochloric acid salt) [Example 1, 3-(3,4-DICHLOROPHENYL)PYRROLIDINE], the melting point was 136 to 137 °C.
For `Clc1ccc(C2CCNC2)cc1Cl` (stereo not drawn) [Example 1, 3-(3,4-DICHLOROPHENYL)PYRROLIDINE], the DOPAC %-increase in data set [1] is given as −45%.
Compound `Fc1cc(F)cc(C2CCNC2)c1` (stereo not drawn) (as salt: oxalic acid salt) [Example 3, 3-(3,5-DIFLUOROPHENYL)PYRROLIDINE] yielded a melting point of 199 to 200 °C.
As to `CN1CCC(c2ccc(F)c(F)c2)C1` (stereo not drawn) (as salt: fumaric acid salt) [Example 4, 3-(3,4-DIFLUOROPHENYL)-1-METHYLPYRROLIDINE], the melting point was 140 to 142 °C.
On to `Fc1ccc(C2CCNC2)cc1F` (stereo not drawn) [Example 5, 3-(3,4-DIFLUOROPHENYL)PYRROLIDINE], for which the DOPAC %-increase in data set [1] is listed as −37%.
Turning to `Fc1cc(F)cc(C2CCNC2)c1` (stereo not drawn) [Example 3, 3-(3,5-DIFLUOROPHENYL)PYRROLIDINE], in data set [1], the DOPAC %-increase is listed as −19%.
In the case of `CCCN1CCC[C@@H](c2cccc(S(C)(=O)=O)c2)C1` [Example 16 of ref. 1], in data set [3], the DOPAC %-increase entry is reported as “+150^2%”.
`CCCN1CCC(c2cc(F)cc(C(F)(F)F)c2)CC1` [Example 44 of WO01/46146, 4-(3-fluoro-5-trifluoromethyl-phenyl)-1-propyl-piperidine, reference compound]: the DOPAC %-increase result in data set [1] is “+239%”.
As to `Fc1ccc(C2CCNC2)cc1F` (stereo not drawn) (as salt: hydrochloric acid salt) [Example 5, 3-(3,4-DIFLUOROPHENYL)PYRROLIDINE], the melting point was in the range of 139 to 140 °C.
`CNCC[C@@H](Oc1ccccc1C)c1ccccc1` [atomoxetine]: the “cortical DA and NE levels” value in data set [4] was “regionally selective increases in cortical DA and NE”.
Take `Fc1ccc(C2CCNC2)c(F)c1` (stereo not drawn) [Example 2, 3-(2,4-DIFLUOROPHENYL)PYRROLIDINE]: the DOPAC %-increase in data set [1] is −22%.
In the case of `CCCN1CCC(c2ccc(Cl)c(C(F)(F)F)c2)CC1` [Example 9 of WO01/46146, 4-(4-chloro-3-trifluoromethyl-phenyl)-1-propyl-piperidine, reference compound], in data set [1], the DOPAC %-increase entry is listed as “+94%”.
